According to patent publication US6022561A, “Bilayers preparations” (Scotia Lipidteknik AB, priority 1994, dated 2000):
Where a name gives a salt, the structure may show the parent alone.

Assays:
cancer cells = test: Activity against cancer cells in vitro; assay type: cell-based
haemolysis = test: Haemolysis in vivo, preliminary studies; parameters: species or system rats
human whole blood = test: Test 4. In vitro haemolysis test; assay type: cell-based; details: Li-GLA dissolved in 0.9% saline
Procedure: The samples were then incubated at 37° C. in an oxygen:carbon dioxide, 95:5, enriched atmosphere, 3 l/min, for 1 h, with constant gentle shaking. […] All samples were then spun for 2 min in an Eppendorf Microfuge (Brinkman Instruments Ltd, Canada) and finally analyzed on a centrifugal analyser (Cobas Bioanalyser; Hoffmann-La Roche Ltd, Canada) with UV scan of 540 nm.

SMILES: CCCCC/C=C\C/C=C\C/C=C\CCCCC(=O)O [Li-GLA, lithium salt of gammalinolenic acid]
- Activity against cancer cells in vitro, free vs liposomal Li-GLA (cancer cells): almost identical
- "Red urine" in rats (haemolysis): does
- Concentration causing 100% haemolysis (human whole blood): 4000 to 5000 µM
